Values joined by “and” are separate entries in the source; they are usually repeats but may differ in a detail not shown here. Identical values can stand only once. Active and inactive are the calls of the source.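 How the source made its calls: active means compounds with IC50 below 20 µM; inactive means the rest.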
The compounds below were run against Type-1 angiotensin II receptor (Homo sapiens) (UniProt P30556) (assay: AT1 receptor antagonists, beta-arrestin recruitment, SAR follow-up, selectivity assay for APJ antagonist project, cell-based, CHO-K1 PathHunter, luminescence (AID 488810;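 further: agonist challenge with angiotensin II at 50 nM final near its EC80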)). Conditions: CHO-K1 AGTR1 PathHunter beta-arrestin, antagonist mode.
Type-1 angiotensin II receptor (Homo sapiens), sequence (P30556 whole entry, looked up): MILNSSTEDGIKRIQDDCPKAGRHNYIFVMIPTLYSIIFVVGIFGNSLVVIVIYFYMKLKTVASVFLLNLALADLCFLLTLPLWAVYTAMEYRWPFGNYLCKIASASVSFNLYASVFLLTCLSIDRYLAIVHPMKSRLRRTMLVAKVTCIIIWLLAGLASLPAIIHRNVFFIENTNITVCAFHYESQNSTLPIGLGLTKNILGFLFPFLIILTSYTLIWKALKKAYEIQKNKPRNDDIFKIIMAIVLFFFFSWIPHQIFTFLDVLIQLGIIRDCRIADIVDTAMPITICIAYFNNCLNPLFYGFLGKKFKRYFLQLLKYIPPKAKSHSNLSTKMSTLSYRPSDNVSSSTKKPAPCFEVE

Q: For `O=C(Oc1coc(CSc2ncccn2)cc1=O)c1ccc(F)cc1`, which IC50 is on record?
A: > 79 µM (inactive)

Q: Which IC50 does the source give for `O=C(COC(=O)c1ccncc1)c1ccc(Cl)c(Cl)c1` here?
A: 19.8 µM

Q: How did the IC50 turn out when `O=C(COC(=O)c1cnccn1)c1ccc(Cl)c([N+](=O)[O-])c1` was run?
A: 9.73 µM

Q: For `Cc1cc(C)nc(SCc2cc(=O)c(OC(=O)c3cc([N+](=O)[O-])ccc3Cl)co2)n1`, which IC50 is on record?
A: inactive

Q: For `COc1ccccc1NCC(O)c1ccc(Cl)cc1` (stereo not given), which IC50 is on record?
A: > 79 µM (inactive)

Q: How did the IC50 turn out when `COc1ccc(C(=O)Oc2coc(CSc3nccc(C)n3)cc2=O)cc1` was run?
A: > 79 µM (inactive)

Q: Which IC50 does the source give for `Cc1c(O)ccc2c1OC1(CC2c2ccccc2Cl)CC(C)(C)NC(=S)N1` (stereo not given) here?
A: > 79 µM (inactive)

Q: How did the IC50 turn out when `COc1ccc(S(=O)(=O)NNc2nc(C)cc(C)n2)cc1Br` was run?
A: inactive

Q: With `CCOc1ccc(C(=O)Oc2coc(CSc3ncccn3)cc2=O)cc1` as the compound, how does the IC50 read?
A: > 79 µM (inactive)

Q: How did the IC50 turn out when `C=CCSC1=NC2(CC(c3ccccc3)c3c(C)cc(O)cc3O2)CC(C)(C)N1` (stereo not given) was run?
A: > 79 µM (inactive)

Q: `NC(=O)c1ccccc1NCC(=O)c1ccc(Cl)cc1` was tested. Which IC50 did it give?
A: 3.24 µM

Q: Which IC50 does the source give for `CSc1cccc(N=C2C(=O)Nc3ccccc32)c1` here?
A: 5.13 µM and 8.85 µM

Q: With `C=CCOc1cccc(CSc2ncccn2)c1` as the compound, how does the IC50 read?
A: > 79 µM (inactive)

Q: `C=CCOc1cccc(CSc2nc(C)cc(C)n2)c1` was tested. Which IC50 did it give?
A: > 79 µM (inactive)

Q: `Cc1cccc(C2CC3(CC(C)(C)NC(=S)N3)Oc3cc(O)cc(C)c32)c1` (stereo not given) was tested. Which IC50 did it give?
A: inactive

Q: How did the IC50 turn out when `O=C(Nc1nc2ccc(F)cc2s1)c1ccccn1` was run?
A: 5.27 µM

Q: For `O=C(Oc1coc(CSc2ncccn2)cc1=O)c1ccc(C(F)(F)F)cc1`, which IC50 is on record?
A: > 79 µM (inactive)

Q: How did the IC50 turn out when `Cn1c(=O)c(C(=S)NC(=O)C2CC2)c(N)n(Cc2ccccc2)c1=O` was run?
A: inactive

Q: Which IC50 does the source give for `CC(C)Oc1ccc(C(=O)Oc2coc(CSc3ncccn3)cc2=O)cc1` here?
A: > 79 µM (inactive)

Q: `Cc1ccnc(SCc2cc(=O)c(OC(=O)c3ccc([N+](=O)[O-])cc3)co2)n1` was tested. Which IC50 did it give?
A: > 79 µM (inactive)

Q: How did the IC50 turn out when `Cc1ccc(C(=O)Oc2coc(CSc3ncccn3)cc2=O)cc1` was run?
A: > 79 µM (inactive)

Q: With `O=c1cc(CCl)occ1O` as the compound, how does the IC50 read?
A: > 79 µM (inactive)

Q: How did the IC50 turn out when `Cc1ccc(OCC(=O)OCC(=O)c2cccc([N+](=O)[O-])c2)cc1C` was run?
A: 15.8 µM

Q: For `Cc1cccc2c1NC(=O)C2=Nc1ccc(Cl)cc1`, which IC50 is on record?
A: 14.3 µM

Q: How did the IC50 turn out when `CCC[N+](CC#Cc1ccccc1)(CCC)CC(=O)c1ccc(Cl)cc1` was run?
A: inactive

Q: Which IC50 does the source give for `FC(F)(F)c1cccc(Sc2nc(-c3ccccc3)nnc2C(F)(F)F)c1` here?
A: 17.9 µM

Q: Which IC50 does the source give for `C=CCSC1=NC2(CC(c3ccc(C)cc3)c3c(C)cc(OC(C)=O)cc3O2)CC(C)(C)N1` (stereo not given) here?
A: > 79 µM (inactive)

Q: How did the IC50 turn out when `CC(C(=O)OCC(=O)c1cccc([N+](=O)[O-])c1)N1C(=O)C2C3C=CC(C3)C2C1=O` (stereo not given) was run?
A: inactive

Q: `Cc1ccnc(SCc2cc(=O)c(OCc3ccccc3)co2)n1` was tested. Which IC50 did it give?
A: > 79 µM (inactive)

Q: With `Cc1ccnc(SCc2cc(=O)c(OC(=O)c3cccc(Cl)c3)co2)n1` as the compound, how does the IC50 read?
A: > 79 µM (inactive)

Q: Which IC50 does the source give for `Cc1cccc(C2CC3(CC(C)(C)NC(=O)N3)Oc3cc(O)c(Cl)cc32)c1` (stereo not given) here?
A: > 79 µM (inactive)

Q: How did the IC50 turn out when `CC1(C)CC2(CC(c3ccccc3Cl)c3cc(Cl)c(OC(=O)C4CC4)cc3O2)NC(=S)N1` (stereo not given) was run?
A: > 79 µM (inactive)

Q: How did the IC50 turn out when `Cc1ccccc1NCC(=O)c1ccc(Cl)cc1` was run?
A: 1.72 µM

Q: For `O=C(Oc1coc(CSc2ncccn2)cc1=O)c1ccc(Br)cc1`, which IC50 is on record?
A: > 79 µM (inactive)

Q: Which IC50 does the source give for `O=C(Oc1coc(CSc2ncccn2)cc1=O)c1cc(Cl)ccc1[N+](=O)[O-]` here?
A: inactive

Q: `O=C(CNc1ccc(Br)cc1)c1ccccc1` was tested. Which IC50 did it give?
A: 2.66 µM

Q: For `Cc1ccnc(SCc2cc(=O)c(OC(=O)c3ccc(C(F)(F)F)cc3)co2)n1`, which IC50 is on record?
A: > 79 µM (inactive)

Q: How did the IC50 turn out when `Cc1cc(C)nc(SCc2ccc(O)c(Cl)c2)n1` was run?
A: > 79 µM (inactive)

Q: `CN(C)S(=O)(=O)c1ccc(C(=O)Oc2coc(CSc3ncccn3)cc2=O)cc1` was tested. Which IC50 did it give?
A: > 79 µM (inactive)

Q: With `CCCCOc1ccc(C(=O)Oc2coc(CSc3ncccn3)cc2=O)cc1` as the compound, how does the IC50 read?
A: > 79 µM (inactive)

Q: With `Cc1ccc2nc(C)cc(C(=O)OCC(=O)c3ccc(Cl)c([N+](=O)[O-])c3)c2c1` as the compound, how does the IC50 read?
A: 7.74 µM

Q: For `COc1ccc(S(=O)(=O)NNc2nc(C)cc(C)n2)cc1[N+](=O)[O-]`, which IC50 is on record?
A: inactive

Q: With `CC(=O)Oc1cc2c(cc1Cl)C(c1ccccc1Cl)CC1(CC(C)(C)NC(=S)N1)O2` (stereo not given) as the compound, how does the IC50 read?
A: inactive

Q: Which IC50 does the source give for `COc1cc(C(=O)Oc2coc(CSc3ncccn3)cc2=O)c([N+](=O)[O-])cc1OC` here?
A: > 79 µM (inactive)

Q: For `Cc1ccnc(SCc2cc(=O)c(OC(=O)c3ccccc3Cl)co2)n1`, which IC50 is on record?
A: > 79 µM (inactive)

Reference: PubChem BioAssay AID488810 (Sanford-Burnham Center for Chemical Genomics, 2010)
